Test results: ChEMBL document CHEMBL2331447, “Nocardiamides A and B, two cyclohexapeptides from the marine-derived actinomycete Nocardiopsis sp. CNX037” (J Nat Prod, 2013)
Calls of active or inactive are those of the source.

Legend:
Format in all cases: functional, organism-based
Staphylococcus aureus = test: Antimicrobial activity against Staphylococcus aureus ATCC 29213 assessed as inhibition of visible growth measured after 16 to 20 hrs by broth microdilution method
Escherichia coli = test: Antimicrobial activity against Escherichia coli ATCC 25922 assessed as inhibition of visible growth measured after 16 to 20 hrs by broth microdilution method
Enterococcus faecalis = test: Antimicrobial activity against Enterococcus faecalis ATCC 29212 assessed as inhibition of visible growth measured after 16 to 20 hrs by broth microdilution method
Bacillus subtilis = test: Antimicrobial activity against Bacillus subtilis SCSIO BS01 assessed as inhibition of visible growth measured after 16 to 20 hrs by broth microdilution method
Bacillus thuringiensis = test: Antimicrobial activity against Bacillus thuringiensis SCSIO BT01 assessed as inhibition of visible growth measured after 16 to 20 hrs by broth microdilution method
Micrococcus luteus = test: Antimicrobial activity against Micrococcus luteus SCSIO ML01 assessed as inhibition of visible growth measured after 16 to 20 hrs by broth microdilution method
Candida albicans = test: Antimicrobial activity against Candida albicans ATCC 10231 assessed as inhibition of visible growth measured after 16 to 20 hrs by broth microdilution method

Measured: Activity

CC(C)C[C@H]1NC(=O)[C@@H](C(C)C)NC(=O)[C@H](C(C)C)NC(=O)[C@@H](C(C)C)NC(=O)[C@H](Cc2ccc(O)cc2)NC(=O)[C@H](C(C)C)NC1=O
inactive: all assays above

CC[C@H](C)[C@@H]1NC(=O)[C@@H](CC(C)C)NC(=O)[C@@H](C(C)C)NC(=O)[C@H](C(C)C)NC(=O)[C@@H](C(C)C)NC(=O)[C@H](Cc2ccc(O)cc2)NC1=O
inactive: all assays above

CC(C)C[C@@H](NC(=O)[C@H](NC(=O)[C@@H](NC(=O)[C@H](N)C(C)C)C(C)C)C(C)C)C(=O)N[C@H](C(=O)N[C@@H](Cc1ccc(O)cc1)C(=O)O)C(C)C
inactive: all assays above

CC[C@H](C)[C@H](NC(=O)[C@@H](CC(C)C)NC(=O)[C@H](NC(=O)[C@@H](NC(=O)[C@H](N)C(C)C)C(C)C)C(C)C)C(=O)N[C@@H](Cc1ccc(O)cc1)C(=O)O
inactive: all assays above
